Test results reported in ChEMBL document CHEMBL5727896, “Aryldiazepine derivatives as RSV inhibitors” (2020).

test: n vitro cytoprotection assay: HEp-2 cells, (originally derived from tumors grown in irradiated-cortisonised weanling rats that had been injected with epidermoid carcinoma tissue from a person's larynx, but later found to be indistinguishable from HeLa cells by PCR DNA analysis), were used for the culturing of genotype A, “Long” strain RSV. Flasks were inoculated with RSV and viral stocks were collected once cytopathic effect (CPE) was greater than 90%. Viral stocks in 25% sucrose media were snap frozen using liquid nitrogen to increase viral stability. Viral stock titers were quantified by tissue culture infectious dose 50% (TCID50) using 8,000 cells per well and 3-fold viral dilutions across a 96-well plate, cultured for 4 days.Following extensive parameter testing, the final assay is run as follows: HEp-2 cells are seeded into the inner 60 wells of a 96-well plate at 8,000 cells per well in a volume of 50 using Growth Media (DMEM without phenol red, 1% L-Glut, 1% Penn/Strep, 1% nonessential amino acids, 10% FBS). 2-fold serial dilutions of control and test compounds are added to the wells in duplicate in a total volume of 25 μL. Viral stock is then added to the wells in a volume of 25 μL, bringing the total volume of each well to 100 μL. Each 96-well plate has a control column of 6 wells with cells and virus but no compound (negative control, max CPE), a column with cells but no compound or virus (positive control, minimum CPE), and a column with no cells or virus or compound (background plate/reagent control). The control wells with cells but no virus are given an additional 25 uL of growth media containing an equal quantity of sucrose as those wells receiving the viral stock in order to keep consistent in media and volume conditions. The outer wells of the plate are filled with 125 μL of growth media to act as a thermal and evaporative moat around the test wells. Following a 4-day incubation period, the plates are read using ATPlite (50 uL added per well), which quantifies the amount of ATP (a measure of cell health) present in each well. Assay plates are read using the Envision luminometer.

Compound | EC50 [µM]
NNC(=O)c1ncc(C(F)(F)F)cc1Cl | < 2
O=C(Nc1ccccc1)NC1C(=O)Nc2ccccc2N(c2ccccc2)C1=O (stereo not given) | > 5
O=C(NNC(=S)NC1C(=O)Nc2ccccc2N(c2ccccc2)C1=O)c1ccccc1 (stereo not given) | > 5
NNC(=O)c1cn(-c2ccccn2)nc1N1CCOCC1 | 3.5
O=C1Nc2ccccc2N(c2ccccc2)C[C@@H]1Nc1nc2ccccc2o1 | > 5
COCCNc1cc(C(F)(F)F)cnc1-c1nnc(N[C@H]2CN(c3ccccc3)c3ccccc3NC2=O)o1 | > 5
Cc1ccc(C(=O)NN)o1 | > 5
O=C1Nc2ccccc2N(c2ccccc2)C[C@@H]1Nc1nnc(-c2nc(C3CC3)sc2N2CCOCC2)o1 | < 2
O=C(NC1C(=O)Nc2ccccc2N(c2ccccc2)C1=O)c1ccccc1 (stereo not given) | > 5
O=C1Nc2ccccc2N(c2ccccc2)C[C@@H]1Nc1nnc(-c2ccc(N3CCOCC3)cc2F)o1 | > 5
O=C1Nc2ccccc2N(c2ccccc2)C[C@@H]1Nc1nnc(-c2ccccc2)o1 | > 5
O=C1Nc2ccccc2N(c2ccccc2)C[C@@H]1Nc1nnc(-c2ccc(F)cc2)o1 | > 5
O=C(Nc1ccccc1)N[C@H]1CN(c2ccccc2)c2ccccc2NC1=O | > 5
O=C1Nc2ccccc2N(c2cc(F)c(F)c(F)c2)C[C@@H]1Nc1nnc(-c2ncc(C(F)(F)F)cc2N2CCOCC2)o1 | > 5
CCOC(=O)c1nc(C(F)(F)F)sc1N1CCOCC1 | < 2
O=C(N[C@H]1CN(c2ccccc2)c2ccccc2NC1=O)c1ccccc1 | > 5
O=C1Nc2ccccc2N(c2ccccc2)C[C@@H]1Nc1nnc(-c2ncc(C3CC3)cc2N2CCOCC2)o1 | < 2
O=C1Nc2ccccc2N(c2ccccc2)C[C@@H]1Nc1nnc(-c2cccnc2N2CCOCC2)o1 | 3.5
O=C1Nc2ccccc2N(c2ccccc2)C[C@@H]1Nc1nnc(-c2cn(C3CCCC3)nc2N2CCOCC2)o1 | < 2
NNC(=O)c1nc(-c2cccnc2)sc1N1CCOCC1 | < 2
